Test results published in patent US11045453B1 (priority 2020, dated 2021).
Entries after “also recorded” stand apart in the source; their conditions may differ.

Assays:
[1] = system: VSVpp+SARS-2-S Δ18 in Vero-E6 cells; assay type: cell-based, African green monkey
Human Matriptase-2 = Human Matriptase-2 (Homo sapiens, UniProt Q8IU80); assay: Ki determination, chromogenic substrate cleavage; assay type: biochemical; details: read-out: Ki Mean ± SD (n)
Human Prostasin = Human Prostasin (Homo sapiens, UniProt Q16651); assay: Protease inhibition (IC50), chromogenic substrate cleavage; assay type: biochemical; details: listed as marked (IC50) in the Ki column, read-out: IC50 Mean ± SD (n)
Human HAT = Human HAT (Homo sapiens, UniProt O60235); assay: Ki determination, chromogenic substrate cleavage; assay type: biochemical; details: read-out: Ki Mean ± SD (n)
[2] = system: SARS-CoV-2 clinical isolate (2019-nCoV/USA-WA1/2020); assay type: cell-based
Human Enterokinase = Human Enterokinase (Homo sapiens, UniProt P98073); assay: Ki determination, chromogenic substrate cleavage; assay type: biochemical; details: read-out: Ki Mean ± SD (n)
Human Trypsin-6 = Human Trypsin-6 (Homo sapiens, UniProt Q8NHM4); assay: Ki determination, chromogenic substrate cleavage; assay type: biochemical; details: read-out: Ki Mean ± SD (n)
Human Trypsin-3 = Human Trypsin-3 (Homo sapiens, UniProt P35030); assay: biochemical
[3] = system: VSVpp+SARS-2-S Δ18 in Calu-3 cells; assay type: cell-based, human
Human Fxa = target: T1, Human Fxa (Homo sapiens, UniProt P00742); assay: Ki determination, chromogenic substrate cleavage; assay type: biochemical; details: read-out: Ki Mean ± SD (n)
T1 construct: Human Fxa

Human HGFA = Human HGFA (Homo sapiens, UniProt Q04756); assay: Ki determination, chromogenic substrate cleavage; assay type: biochemical; details: read-out: Ki Mean ± SD (n)
[4] = target: Bovine Cationic Trypsin-1 (Bos taurus, UniProt P00760); assay: Ki determination, chromogenic substrate cleavage; assay type: biochemical; details: read-out: Ki Mean ± SD (n)
[5] = target: Human uPA (Q192A in medium) (Homo sapiens, UniProt P00749, Q373A); assay: Ki determination, chromogenic substrate cleavage; assay type: biochemical; details: read-out: Ki Mean ± SD (n)
Human Plasmin = target: T2, Human Plasmin (Homo sapiens, UniProt P00747); assay: Ki determination, chromogenic substrate cleavage; assay type: biochemical; details: read-out: Ki Mean ± SD (n)
T2 construct: Human Plasmin

Human FIXa = target: T3, Human FIXa (Homo sapiens, UniProt P00740); assay: Ki determination, chromogenic substrate cleavage; assay type: biochemical; details: read-out: Ki Mean ± SD (n)
T3 construct: Human FIXa

Human Hepsin = Human Hepsin (Homo sapiens, UniProt P05981); assay: Ki determination, chromogenic substrate cleavage; assay type: biochemical; details: read-out: Ki Mean ± SD (n)
Human uPA = Human uPA (Homo sapiens, UniProt P00749); assay: Ki determination, chromogenic substrate cleavage; assay type: biochemical; details: read-out: Ki Mean ± SD (n)
Human Kallikrein-11 = Human Kallikrein-11 (Homo sapiens, UniProt Q9UBX7); assay: Ki determination, chromogenic substrate cleavage; assay type: biochemical; details: read-out: Ki Mean ± SD (n)
Human Spinesin = Human Spinesin (Homo sapiens, UniProt Q9H3S3); assay: Ki determination, chromogenic substrate cleavage; assay type: biochemical; details: read-out: Ki Mean ± SD (n)
Human PRSS27 = Human PRSS27 (Homo sapiens, UniProt Q9BQR3); assay: Protease inhibition (IC50), chromogenic substrate cleavage; assay type: biochemical; details: listed as marked (IC50) in the Ki column, read-out: IC50 Mean ± SD (n)
Human Thrombin = target: T4, Human Thrombin (Homo sapiens, UniProt P00734); assay: Ki determination, chromogenic substrate cleavage; assay type: biochemical; details: read-out: Ki Mean ± SD (n)
T4 construct: Human Thrombin

[6] = target: Human Activated Protein C (Homo sapiens, UniProt P04070); assay: Ki determination, chromogenic substrate cleavage; assay type: biochemical; details: read-out: Ki Mean ± SD (n)
Human FXIa = target: T5, Human FXIa (Homo sapiens, UniProt P03951); assay: Ki determination, chromogenic substrate cleavage; assay type: biochemical; details: read-out: Ki Mean ± SD (n)
T5 construct: Human FXIa

Human Granzyme A = Human Granzyme A (Homo sapiens, UniProt P12544); assay: Ki determination, chromogenic substrate cleavage; assay type: biochemical; details: read-out: Ki Mean ± SD (n)
Human Kallikrein-1 = Human Kallikrein-1 (Homo sapiens, UniProt P06870); assay: Ki determination, chromogenic substrate cleavage; assay type: biochemical; details: read-out: Ki Mean ± SD (n)
Human Plasma Kallikrein = Human Plasma Kallikrein (Homo sapiens, UniProt P03952); assay: Ki determination, chromogenic substrate cleavage; assay type: biochemical; details: read-out: Ki Mean ± SD (n)
Human TMPRSS2 = target: T6, Human TMPRSS2 (Homo sapiens, UniProt O15393); assay: Ki determination, chromogenic substrate cleavage; assay type: biochemical; details: read-out: Ki Mean ± SD (n)
T6 construct: purchased MyBioSource MBS1193731; host or cells: mammalian expression system
Procedure: The Ki was determined to be 2.9±0.04 (3) μM.

Rat uPA = Rat uPA (Rattus norvegicus, UniProt P29598); assay: Ki determination, chromogenic substrate cleavage; assay type: biochemical; details: read-out: Ki Mean ± SD (n)
Human Kallikrein-8 = Human Kallikrein-8 (Homo sapiens, UniProt O60259); assay: Ki determination, chromogenic substrate cleavage; assay type: biochemical; details: read-out: Ki Mean ± SD (n)
Human Trypsin-1 = Human Trypsin-1 (Homo sapiens, UniProt P07477); assay: biochemical
Mouse uPA = Mouse uPA (Mus musculus, UniProt P06869); assay: Ki determination, chromogenic substrate cleavage; assay type: biochemical; details: read-out: Ki Mean ± SD (n)
[7] = target: Human uPA (H99A in medium) (Homo sapiens, UniProt P00749, H272A); assay: Ki determination, chromogenic substrate cleavage; assay type: biochemical; details: read-out: Ki Mean ± SD (n)
Human C1s = Human C1s (Homo sapiens, UniProt P09871); assay: Ki determination, chromogenic substrate cleavage; assay type: biochemical; details: read-out: Ki Mean ± SD (n)
[8] = system: VSV-G pseudotypes in Calu-3 cells; assay type: cell-based, human
Human TMPRSS11(A) = target: T7, Human TMPRSS11(A) (Homo sapiens, UniProt Q6ZMR5); assay: Ki determination, chromogenic substrate cleavage; assay type: biochemical; details: read-out: Ki Mean ± SD (n)
T7 construct: purchased MyBioSource MBS1345824; host or cells: mammalian expression system
Procedure: The Ki was determined to be 0.39±0.01 (3) μM.

Human DESC-1 = Human DESC-1 (Homo sapiens, UniProt Q9UL52); assay: Ki determination, chromogenic substrate cleavage; assay type: biochemical; details: read-out: Ki Mean ± SD (n)
Rabbit uPA = Rabbit uPA (Oryctolagus cuniculus, UniProt Q8MHY7); assay: Ki determination, chromogenic substrate cleavage; assay type: biochemical; details: read-out: Ki Mean ± SD (n)
Human two-chain tPA = target: T8, Human two-chain tPA (Homo sapiens, UniProt P00750); assay: Ki determination, chromogenic substrate cleavage; assay type: biochemical; details: read-out: Ki Mean ± SD (n)
T8 construct: Human two-chain tPA

Human Trypsin-2 = Human Trypsin-2 (Homo sapiens, UniProt P07478); assay: biochemical

Human PRSS27, sequence (Q9BQR3 35-290): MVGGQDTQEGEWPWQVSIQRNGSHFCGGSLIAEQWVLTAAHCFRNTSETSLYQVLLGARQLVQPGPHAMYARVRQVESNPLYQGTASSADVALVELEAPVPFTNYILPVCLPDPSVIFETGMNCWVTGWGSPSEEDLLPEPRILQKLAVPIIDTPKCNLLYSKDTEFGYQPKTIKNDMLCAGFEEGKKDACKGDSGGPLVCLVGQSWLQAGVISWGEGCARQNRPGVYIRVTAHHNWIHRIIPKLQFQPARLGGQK
T2 sequence (P00747 581-810 limits assumed): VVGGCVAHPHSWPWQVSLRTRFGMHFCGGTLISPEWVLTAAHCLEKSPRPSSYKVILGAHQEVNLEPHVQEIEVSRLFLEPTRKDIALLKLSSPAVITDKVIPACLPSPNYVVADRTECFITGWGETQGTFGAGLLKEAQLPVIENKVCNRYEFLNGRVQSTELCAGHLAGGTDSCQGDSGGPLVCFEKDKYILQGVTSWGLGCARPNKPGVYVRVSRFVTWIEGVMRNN
T2 sequence (P00747 97-580 partner limits assumed): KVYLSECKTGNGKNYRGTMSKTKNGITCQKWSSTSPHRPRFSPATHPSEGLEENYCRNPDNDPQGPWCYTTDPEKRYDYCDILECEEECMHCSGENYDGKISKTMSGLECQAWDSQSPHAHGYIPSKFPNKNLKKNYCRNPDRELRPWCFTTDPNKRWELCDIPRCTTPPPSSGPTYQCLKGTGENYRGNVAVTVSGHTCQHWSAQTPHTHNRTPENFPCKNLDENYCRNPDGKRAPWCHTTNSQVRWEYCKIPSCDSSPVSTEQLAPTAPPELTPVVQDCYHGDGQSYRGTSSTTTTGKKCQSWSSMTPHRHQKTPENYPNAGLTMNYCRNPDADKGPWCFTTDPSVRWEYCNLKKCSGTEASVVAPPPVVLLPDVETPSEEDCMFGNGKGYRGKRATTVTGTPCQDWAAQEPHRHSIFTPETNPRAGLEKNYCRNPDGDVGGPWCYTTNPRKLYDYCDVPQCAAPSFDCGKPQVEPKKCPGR
T8 sequence (P00750 311-562 limits assumed): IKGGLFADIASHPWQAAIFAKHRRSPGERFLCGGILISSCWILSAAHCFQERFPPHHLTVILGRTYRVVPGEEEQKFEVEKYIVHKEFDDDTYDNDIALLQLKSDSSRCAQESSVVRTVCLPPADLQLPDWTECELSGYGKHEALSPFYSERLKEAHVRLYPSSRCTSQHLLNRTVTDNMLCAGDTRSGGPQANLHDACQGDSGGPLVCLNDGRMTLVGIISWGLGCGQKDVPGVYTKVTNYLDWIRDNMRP
T8 sequence (P00750 36-310 partner limits assumed): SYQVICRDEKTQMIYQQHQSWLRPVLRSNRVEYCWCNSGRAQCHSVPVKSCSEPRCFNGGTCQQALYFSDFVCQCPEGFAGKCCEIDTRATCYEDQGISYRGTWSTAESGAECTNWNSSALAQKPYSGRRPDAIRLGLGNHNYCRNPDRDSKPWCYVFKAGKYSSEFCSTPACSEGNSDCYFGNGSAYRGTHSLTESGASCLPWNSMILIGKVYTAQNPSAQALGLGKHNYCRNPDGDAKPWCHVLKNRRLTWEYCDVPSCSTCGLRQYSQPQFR
T1 sequence (P00742 235-488 limits assumed): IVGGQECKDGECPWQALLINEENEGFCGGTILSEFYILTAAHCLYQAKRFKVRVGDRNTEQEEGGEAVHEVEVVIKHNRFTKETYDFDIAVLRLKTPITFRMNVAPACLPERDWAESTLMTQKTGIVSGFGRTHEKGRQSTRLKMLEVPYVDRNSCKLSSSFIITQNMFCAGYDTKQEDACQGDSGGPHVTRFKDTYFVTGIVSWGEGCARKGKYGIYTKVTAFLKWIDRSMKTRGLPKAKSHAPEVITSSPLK
T1 sequence (P00742 41-179 partner limits assumed): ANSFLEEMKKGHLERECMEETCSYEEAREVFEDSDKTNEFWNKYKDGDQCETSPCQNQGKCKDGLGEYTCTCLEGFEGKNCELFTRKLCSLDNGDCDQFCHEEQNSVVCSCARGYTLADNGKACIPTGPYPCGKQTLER
Human DESC-1, sequence (Q9UL52 whole entry): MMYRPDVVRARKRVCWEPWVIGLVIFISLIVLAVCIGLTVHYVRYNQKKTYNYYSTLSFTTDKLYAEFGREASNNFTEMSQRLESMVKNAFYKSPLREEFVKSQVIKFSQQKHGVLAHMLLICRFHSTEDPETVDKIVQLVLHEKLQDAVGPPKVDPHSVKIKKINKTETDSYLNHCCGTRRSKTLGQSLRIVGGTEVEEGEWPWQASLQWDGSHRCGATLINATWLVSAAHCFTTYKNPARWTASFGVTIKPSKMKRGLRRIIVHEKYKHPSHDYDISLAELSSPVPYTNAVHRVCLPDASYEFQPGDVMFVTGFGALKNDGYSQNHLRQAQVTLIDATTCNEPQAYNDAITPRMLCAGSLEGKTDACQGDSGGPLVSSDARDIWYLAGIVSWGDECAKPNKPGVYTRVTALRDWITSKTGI
Human Kallikrein-8, sequence (O60259 33-260): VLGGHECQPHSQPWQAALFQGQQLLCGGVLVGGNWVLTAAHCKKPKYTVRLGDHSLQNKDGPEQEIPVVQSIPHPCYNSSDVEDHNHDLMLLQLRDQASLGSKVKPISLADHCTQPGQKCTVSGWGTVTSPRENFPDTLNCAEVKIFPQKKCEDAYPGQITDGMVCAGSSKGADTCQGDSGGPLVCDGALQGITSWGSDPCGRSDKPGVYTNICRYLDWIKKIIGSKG
Human HAT, sequence (O60235 whole entry): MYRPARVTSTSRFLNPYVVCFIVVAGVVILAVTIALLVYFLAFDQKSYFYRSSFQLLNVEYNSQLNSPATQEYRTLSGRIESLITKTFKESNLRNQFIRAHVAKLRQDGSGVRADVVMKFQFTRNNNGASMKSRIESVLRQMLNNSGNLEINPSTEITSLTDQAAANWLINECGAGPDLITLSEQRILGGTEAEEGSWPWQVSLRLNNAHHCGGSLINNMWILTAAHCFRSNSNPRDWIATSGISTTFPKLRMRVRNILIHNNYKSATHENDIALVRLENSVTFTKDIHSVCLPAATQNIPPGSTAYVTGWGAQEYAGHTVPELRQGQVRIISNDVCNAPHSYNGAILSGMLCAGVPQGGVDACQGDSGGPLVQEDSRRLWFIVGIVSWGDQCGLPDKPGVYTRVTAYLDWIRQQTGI
Human HGFA, sequence (Q04756 373-655): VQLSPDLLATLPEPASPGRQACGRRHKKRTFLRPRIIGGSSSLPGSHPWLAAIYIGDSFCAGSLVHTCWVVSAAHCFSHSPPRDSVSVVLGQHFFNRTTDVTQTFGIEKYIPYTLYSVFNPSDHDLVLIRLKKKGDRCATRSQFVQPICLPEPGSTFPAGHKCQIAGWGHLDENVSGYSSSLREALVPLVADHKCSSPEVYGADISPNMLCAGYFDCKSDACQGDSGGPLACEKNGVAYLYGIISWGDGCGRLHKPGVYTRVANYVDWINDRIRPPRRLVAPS
Human Kallikrein-11, sequence (Q9UBX7 54-282): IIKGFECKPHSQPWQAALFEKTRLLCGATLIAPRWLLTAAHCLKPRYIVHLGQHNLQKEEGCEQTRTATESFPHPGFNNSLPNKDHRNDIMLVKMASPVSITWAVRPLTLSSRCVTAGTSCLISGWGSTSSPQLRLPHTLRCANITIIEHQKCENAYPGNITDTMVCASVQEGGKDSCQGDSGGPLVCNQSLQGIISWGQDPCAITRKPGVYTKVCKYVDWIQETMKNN
Human C1s, sequence (P09871 16-688): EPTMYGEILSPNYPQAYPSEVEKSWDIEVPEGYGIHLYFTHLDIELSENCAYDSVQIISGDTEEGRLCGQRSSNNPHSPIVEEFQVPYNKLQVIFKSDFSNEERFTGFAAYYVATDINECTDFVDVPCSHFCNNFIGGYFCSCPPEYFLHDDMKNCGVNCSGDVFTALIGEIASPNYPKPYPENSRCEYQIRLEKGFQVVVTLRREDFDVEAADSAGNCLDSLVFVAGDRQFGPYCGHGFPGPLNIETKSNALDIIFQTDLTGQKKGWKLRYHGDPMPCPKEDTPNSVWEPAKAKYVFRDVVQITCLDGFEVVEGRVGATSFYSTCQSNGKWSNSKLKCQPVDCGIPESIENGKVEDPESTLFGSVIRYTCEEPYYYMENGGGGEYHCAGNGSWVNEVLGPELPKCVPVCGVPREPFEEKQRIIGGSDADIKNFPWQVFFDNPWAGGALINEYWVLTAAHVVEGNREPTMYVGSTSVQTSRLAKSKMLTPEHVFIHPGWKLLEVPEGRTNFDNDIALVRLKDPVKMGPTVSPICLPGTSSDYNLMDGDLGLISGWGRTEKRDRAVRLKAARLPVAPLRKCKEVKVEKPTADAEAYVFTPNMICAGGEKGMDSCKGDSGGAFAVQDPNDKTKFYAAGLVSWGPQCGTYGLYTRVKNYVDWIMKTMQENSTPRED
T3 sequence (P00740 227-461 limits assumed): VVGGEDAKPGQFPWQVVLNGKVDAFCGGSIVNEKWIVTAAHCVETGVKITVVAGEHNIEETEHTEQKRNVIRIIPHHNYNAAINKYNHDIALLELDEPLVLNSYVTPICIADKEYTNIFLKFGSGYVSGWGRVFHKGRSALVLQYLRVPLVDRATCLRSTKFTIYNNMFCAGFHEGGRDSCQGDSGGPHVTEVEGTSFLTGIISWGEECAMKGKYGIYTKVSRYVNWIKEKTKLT
T3 sequence (P00740 47-191 partner limits assumed): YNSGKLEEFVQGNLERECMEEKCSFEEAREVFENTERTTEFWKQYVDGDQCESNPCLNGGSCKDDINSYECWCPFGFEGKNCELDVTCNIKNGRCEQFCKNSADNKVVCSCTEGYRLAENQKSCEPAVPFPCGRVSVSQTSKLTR
Human Prostasin, sequence (Q16651 33-343): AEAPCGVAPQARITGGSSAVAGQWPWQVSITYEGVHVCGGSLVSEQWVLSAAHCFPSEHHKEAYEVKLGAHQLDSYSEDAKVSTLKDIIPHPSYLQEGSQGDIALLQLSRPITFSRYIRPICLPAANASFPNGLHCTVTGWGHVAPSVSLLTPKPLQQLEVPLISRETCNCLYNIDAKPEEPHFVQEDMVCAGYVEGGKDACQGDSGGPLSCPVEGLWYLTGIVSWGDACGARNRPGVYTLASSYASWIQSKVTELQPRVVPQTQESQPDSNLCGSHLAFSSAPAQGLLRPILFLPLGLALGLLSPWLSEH

## CCN(CC)CCCC(C)Nc1ccnc2cc(Cl)ccc12 (centres unmarked) [chloroquine]
[1]
  inhibition of S protein-driven entry: potently inhibited

## CCOC(=O)N1CCN(C(=O)[C@H](Cc2cccc(C(=N)N)c2)NS(=O)(=O)c2c(C(C)C)cc(C(C)C)cc2C(C)C)CC1 [WX-UK1, N-α-(2,4,6-triisopropylphenylsulfonyl)-3-amidino-phenylalanine-4-ethoxycarbonylpiperazide]
Human Matriptase-2
  Ki: 6400 ± 300 nM
Human Prostasin
  IC50: > 250000 nM
Human HAT
  Ki: 1500 ± 100 nM
[2]
  antiviral activity / viral replication: potent antiviral activity; also recorded: inhibited
  infectious virus production, TCID50 assay in apical washes: dose-dependent reduction
[2]; lowest concentration 3.33 μg/ml, […]
  reduction in viral load by TCID50: 4 log
Human Enterokinase
  Ki: 710 ± 40 nM
Human Trypsin-6
  Ki: 100 ± 10 nM
Human Trypsin-3
  Ki: 19 ± 4 nM
[3]
  inhibition of SARS-2-S-driven pseudotype entry: moderate inhibitory activity
Human Fxa
  Ki: 2600 ± 400 nM
Human HGFA
  Ki: 28000 ± 5000 nM
[4]
  Ki: 500 ± 100 nM
[5]
  Ki: 2900 ± 100 nM
Human Plasmin
  Ki: 2400 ± 300 nM
Human FIXa
  Ki: 2500 ± 200 nM
Human Hepsin
  Ki: 4300 ± 500 nM
Human uPA
  Ki: 900 ± 100 nM
Human Kallikrein-11
  Ki: > 250000 nM
Human Spinesin
  Ki: 7700 ± 500 nM
Human PRSS27
  IC50: 19000 ± 4000 nM
Human Thrombin
  Ki: 800 ± 100 nM
[6]
  Ki: 3900 ± 200 nM
Human FXIa
  Ki: 900 ± 100 nM
[1]
  inhibition of SARS-2-S-driven pseudotype entry: moderate inhibitory activity
Human Granzyme A
  Ki: > 250000 nM
Human Kallikrein-1
  Ki: > 250000 nM
Human Plasma Kallikrein
  Ki: 26000 ± 1000 nM
Human TMPRSS2
  Ki: 2900 ± 40 nM
Rat uPA
  Ki: 400 ± 100 nM
Human Kallikrein-8
  Ki: > 250000 nM
Human Trypsin-1
  Ki: 190 ± 10 nM
Mouse uPA
  Ki: 45000 ± 6000 nM
[7]
  Ki: 14000 ± 400 nM
Human C1s
  Ki: 3100 ± 400 nM
[8]
  inhibition of VSV-G entry: moderately inhibited
Human TMPRSS11(A)
  Ki: 390 ± 10 nM
Human DESC-1
  Ki: 13000 ± 2000 nM
Rabbit uPA
  Ki: 800 ± 100 nM
Human two-chain tPA
  Ki: 1400 ± 100 nM
Human Trypsin-2
  Ki: 75 ± 3 nM

## 4-[[4-[(Aminoiminomethyl)amino]benzoyl]oxy] benzeneacetic acid 2-(dimethylamino)-2-oxoethyl ester methanesulfonate [camostat, reference compound]
[2]
  antiviral activity / viral replication: inhibited
[1]
  inhibition of SARS-2-S-driven pseudotype entry: inactive
